Experimental data: the SangsterLogP compilation
Each block holds one molecule with its values, some of them ahead of it.

Structure (SMILES): NCCCCCCCCOc1cccc2ccccc12
logP: 3.14

Structure (SMILES): NCCCOc1cccc2ccccc12
logP: 1.04

Structure (SMILES): COc1ccc(C(=O)c2c(C)cc3n2CCC3C(=O)O)cc1 (stereo not given)
logP: 2.91

Structure (SMILES): NCCCCCOc1cccc2ccccc12
logP: 1.59

Structure (SMILES): COC(=O)NC1=NCC(c2ccc(C(C)C)cc2)N1 (stereo not given)
logP: 2.6

Structure (SMILES): COC(=O)NC1=NCC(c2ccc(C(F)(F)F)cc2)N1 (stereo not given)
logP: 2.25

Structure (SMILES): Cc1ccc(C(=O)c2c(C)cc3n2CCC3C(=O)O)cc1 (stereo not given)
logP: 3.33

Structure (SMILES): Cc1cc2n(c1C(=O)c1ccccc1)CCC2C(=O)O (stereo not given)
logP: 2.85

Structure (SMILES): NCCOc1cccc2ccccc12
logP: 1.15

Structure (SMILES): NCCCCOc1cccc2ccccc12
logP: 1.25

Structure (SMILES): CCOC(=O)NC1=NCC(c2ccccc2Cl)N1C (stereo not given)
logP: 2.4

Structure (SMILES): COC(=O)NC1=NCC(c2ccccc2Br)N1 (stereo not given)
logP: 1.85

Structure (SMILES): CN(C)CCCCOc1cccc2ccccc12
logP: 2.05

Structure (SMILES): COC(=O)NC1=NCC(c2ccccc2)N1 (stereo not given)
logP: 1.55

Structure (SMILES): CN(C)CCCOc1cccc2ccccc12
logP: 1.99

Structure (SMILES): COC(=O)NC1=NCC(c2ccc3ccccc3c2)N1 (stereo not given)
logP: 2.54

Structure (SMILES): CCc1cc2n(c1C(=O)c1ccc(F)cc1)CCC2C(=O)O (stereo not given)
logP: 3.63

Structure (SMILES): O=c1c2ncn(COCCO)c2nc2[nH]c(-c3ccc4ccccc4c3)cn12
logP: 2.09

Structure (SMILES): COC(=O)NC1=NCC(c2cccc(F)c2)N1 (stereo not given)
logP: 1.41

Structure (SMILES): COC(=O)NC1=NCC(c2cccc(Cl)c2)N1 (stereo not given)
logP: 1.9

Structure (SMILES): NCCCCCCOc1cccc2ccccc12
logP: 2.06

Structure (SMILES): Cc1cc2n(c1C(=O)c1ccc(Cl)cc1)CCC2C(=O)O (stereo not given)
logP: 3.6

Structure (SMILES): COC(=O)NC1=NCC(c2ccc3c(c2)OCO3)N1 (stereo not given)
logP: 1.21

Structure (SMILES): COC(=O)NC1=NCC(c2ccc(F)cc2)N1 (stereo not given)
logP: 1.49

Structure (SMILES): CCc1cc2n(c1C(=O)c1ccccc1)CCC2C(=O)O (stereo not given)
logP: 3.31

Structure (SMILES): CN(C)CCOc1cccc2ccccc12
logP: 2.12

More lines, now with the values ahead:

logP: 2.57
Structure (SMILES): CCOC(=O)NC1=NCC(c2cccc(C)c2C)N1C (stereo not given)

logP: 0.28
Structure (SMILES): COC(=O)NC1=NCC(c2ccc(CO)cc2)N1C (stereo not given)

logP: 1.9
Structure (SMILES): CCOC(=O)NC1=NCC(c2ccc(F)cc2)N1C (stereo not given)

logP: 1.84
Structure (SMILES): CCOC(=O)NC1=NCC(c2cccc(F)c2)N1C (stereo not given)

logP: 2.1
Structure (SMILES): COC(=O)NC1=NCC(c2cccc(Cl)c2)N1C (stereo not given)

logP: 2.08
Structure (SMILES): COC(=O)NC1=NCC(c2ccccc2Cl)N1C (stereo not given)

logP: 2.45
Structure (SMILES): CCOC(=O)NC1=NCC(c2cccc(Cl)c2)N1C (stereo not given)

logP: 1.57
Structure (SMILES): COC(=O)NC1=NCC(c2ccccc2)N1C (stereo not given)

logP: 0.74
Structure (SMILES): COC(=O)NC1=NCC(c2ccc(C=O)cc2)N1C (stereo not given)

logP: 0.84
Structure (SMILES): CCOC(=O)NC1=NCC(c2ccc(CO)cc2)N1C (stereo not given)

logP: 2.77
Structure (SMILES): COC(=O)NC1=NCC(c2cc(Br)ccc2Br)N1C (stereo not given)

logP: 1.9
Structure (SMILES): CCOC(=O)NC1=NCC(c2ccccc2)N1C (stereo not given)

logP: 1.53
Structure (SMILES): COC(=O)NC1=NCC(c2ccccc2F)N1C (stereo not given)

logP: 2.17
Structure (SMILES): COC(=O)NC1=NCC(c2ccc(Cl)cc2)N1C (stereo not given)

logP: 1.38
Structure (SMILES): COC(=O)NC1=NCC(c2ccc(C(=O)OC)cc2)N1C (stereo not given)

logP: 2.08
Structure (SMILES): COC(=O)NC1=NCC(c2ccccc2SC)N1C (stereo not given)

logP: 1.85
Structure (SMILES): COC(=O)NC1=NCC(c2cccc(C)c2)N1C (stereo not given)

logP: 1.85
Structure (SMILES): COC(=O)NC1=NCC(c2ccccc2C)N1C (stereo not given)

logP: 1.39
Structure (SMILES): COC(=O)NC1=NCC(c2cccc(OC)c2)N1C (stereo not given)
